In PubChem BioAssay (NCI) one finds TGI and GI50 data, which are given here for 11 compounds.

Among the test systems are A498 renal; HCC-2998 colon; HCT-15 colon; IGROV1 ovarian; MDA-MB-231 breast; SF-268 CNS; SNB-19 CNS; TK-10 renal; U251 CNS; UACC-257 melanoma.
Common to all, as to test: NCI anticancer screen, dose series, 48 h

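All cell lines were grown in 96-well plates and treated with compound for 48 hours. GI50 = concentration required for 50% inhibition of growth. Definition used: TGI = concentration required for complete inhibition of growth.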

`CCCCCCCCCCCCCCCCSS(C)(=O)=O`: the TGI with A498 renal was greater than 97.2 µM; with HCC-2998 colon it was greater than 72.5 µM; in the experiment on HCT-15 colon, 39.2 µM; in the experiment with IGROV1 ovarian, greater than 61.3 µM; in the experiment on MDA-MB-231 breast it was greater than 100 µM; with SF-268 CNS it was greater than 35.9 µM. Also, the TGI with SNB-19 CNS was greater than 100 µM; in the experiment on TK-10 renal, 52.9 µM; in the experiment with U251 CNS, greater than 100 µM; with UACC-257 melanoma, greater than 93.5 µM.
As for `Nc1nc2ccccc2c2[nH]c3ccccc3c12`, the GI50 with A498 renal is 1.16 µM; with HCT-15 colon, 0.671 µM; in the experiment on IGROV1 ovarian it was 0.806 µM; with MDA-MB-231 breast, 1.22 µM; with SF-268 CNS it was 1.97 µM; in the experiment with SNB-19 CNS, 1.1 µM. For the same compound, the GI50 is 1.57 µM in the experiment with TK-10 renal, 1.2 µM in the experiment with U251 CNS and 1.64 µM with UACC-257 melanoma. In addition, the TGI in the experiment on A498 renal amounted to 2.42 µM; with HCT-15 colon, 2.43 µM; in the experiment on IGROV1 ovarian, 2.42 µM; in the experiment on MDA-MB-231 breast it was 2.57 µM; in the experiment on SF-268 CNS, 7.23 µM; in the experiment with SNB-19 CNS, 3.71 µM. Besides, the TGI in the experiment on TK-10 renal was found to be 4.18 µM; in the experiment on U251 CNS it was 2.43 µM; in the experiment on UACC-257 melanoma, 2.99 µM.
As for `CC1=CC[C@@H]2[C@@H](CC[C@@]2(C)O)C(C)(C)[C@H]1CC[C@@H]1[C@@]2(C)CC[C@@H](O)C(C)(C)O[C@@H]2CC[C@]1(C)O`, the TGI was 29.3 µM in the experiment on A498 renal; 33.4 µM in the experiment on HCC-2998 colon; 38 µM in the experiment with HCT-15 colon; 34.5 µM with MDA-MB-231 breast; 46.2 µM in the experiment on SNB-19 CNS; greater than 100 µM in the experiment with TK-10 renal. The results for the TGI in the experiment on U251 CNS and in the experiment on UACC-257 melanoma were 39.8 µM and 81 µM, respectively.
Regarding `S=P(C1CCCCC1)(C1CCCCC1)C(c1cccnc1)N1CCCC1` (configuration not stated), the TGI was 67.9 µM in the experiment with A498 renal; greater than 100 µM with HCT-15 colon; 33.8 µM in the experiment on IGROV1 ovarian; 39.1 µM in the experiment with MDA-MB-231 breast; 38.4 µM in the experiment on SF-268 CNS; greater than 100 µM in the experiment on SNB-19 CNS. The TGI in the experiment on TK-10 renal was 34.3 µM; with U251 CNS, 46.6 µM; in the experiment on UACC-257 melanoma, greater than 100 µM.
For `N#Cc1c(N)n(C2OC(CO)C(O)C2O)c2ncnc(N)c12` (configuration not stated), in the experiment on HCC-2998 colon, the GI50 is 0.145 µM. In addition, the TGI is 0.509 µM in the experiment on HCC-2998 colon; 0.164 µM in the experiment on HCT-15 colon; greater than 100 µM in the experiment with IGROV1 ovarian; greater than 8.22 µM in the experiment with MDA-MB-231 breast; 1.81 µM with SF-268 CNS; greater than 84.2 µM in the experiment on SNB-19 CNS. Moreover, the TGI in the experiment on U251 CNS was greater than 78.2 µM; with UACC-257 melanoma, 0.574 µM.
In the case of `O=C(NCCN1CCOCC1)Nc1nc2ccc(Sc3nnc4ccc(-c5ccc(F)cc5)nn34)cc2s1`, the GI50 in the experiment on A498 renal is 80.6 µM; in the experiment on HCC-2998 colon, 17.3 µM; in the experiment on HCT-15 colon, greater than 26.7 µM; in the experiment on IGROV1 ovarian it was greater than 100 µM; in the experiment on MDA-MB-231 breast it was 3 µM; in the experiment with SF-268 CNS, greater than 23.3 µM. Also, the GI50 was 2.8 µM in the experiment on SNB-19 CNS, greater than 100 µM in the experiment on TK-10 renal and 7.94 µM with UACC-257 melanoma. Also, the TGI was greater than 100 µM in the experiment with A498 renal; greater than 100 µM in the experiment on HCC-2998 colon; greater than 100 µM in the experiment on HCT-15 colon; greater than 100 µM in the experiment on IGROV1 ovarian; greater than 21.6 µM with MDA-MB-231 breast; greater than 100 µM in the experiment with SF-268 CNS. For the same compound, the TGI was greater than 100 µM in the experiment with SNB-19 CNS, greater than 100 µM in the experiment with TK-10 renal and greater than 21.2 µM in the experiment with UACC-257 melanoma.
`Nc1ncnc2c1ncn2C1OC(CO)CC1O` (configuration not stated): the TGI in the experiment on HCC-2998 colon was 43.7 µM; with HCT-15 colon it was 83.3 µM; with IGROV1 ovarian, greater than 100 µM; with MDA-MB-231 breast, 42.7 µM; in the experiment on SF-268 CNS it was greater than 100 µM; in the experiment on SNB-19 CNS, greater than 100 µM. Besides, the TGI in the experiment on TK-10 renal, in the experiment on U251 CNS and in the experiment on UACC-257 melanoma was greater than 100 µM in each case.
With `Nc1nc(=O)c2[nH]cnc2n1O`, the TGI in the experiment on A498 renal, in the experiment with HCT-15 colon, in the experiment on IGROV1 ovarian, in the experiment on MDA-MB-231 breast, with SF-268 CNS and in the experiment with SNB-19 CNS was greater than 100 µM throughout. For the same compound, the TGI in the experiment on TK-10 renal, in the experiment with U251 CNS and in the experiment with UACC-257 melanoma was greater than 100 µM each time.
Consider `N=C(N)c1ccc(CS(=O)(=O)F)cc1`, for which the GI50 in the experiment on HCC-2998 colon, in the experiment on HCT-15 colon, in the experiment with IGROV1 ovarian, in the experiment on MDA-MB-231 breast, in the experiment on SF-268 CNS and with SNB-19 CNS was greater than 100 µM each time. Besides, the GI50 in the experiment on TK-10 renal, with U251 CNS and in the experiment with UACC-257 melanoma was greater than 100 µM each time. Besides, the TGI with HCC-2998 colon, in the experiment on HCT-15 colon, in the experiment with IGROV1 ovarian, in the experiment on MDA-MB-231 breast, in the experiment on SF-268 CNS and in the experiment on SNB-19 CNS was greater than 100 µM in each case. Besides, the TGI in the experiment with TK-10 renal, with U251 CNS and in the experiment with UACC-257 melanoma was greater than 100 µM throughout.
Consider `C=C(c1ccc(OC)c(/C=C/C(=O)c2cc(OC)c(OC)c(OC)c2)c1)c1cc(OC)c(OC)c(OC)c1`, for which the GI50 in the experiment on A498 renal was 1.48 µM; with HCC-2998 colon it was 1.84 µM; with HCT-15 colon it was 0.552 µM; in the experiment on IGROV1 ovarian, 2.07 µM; with MDA-MB-231 breast it was 0.995 µM; in the experiment on SF-268 CNS it was 1.46 µM. The results for the GI50 in the experiment on TK-10 renal, in the experiment with U251 CNS and with UACC-257 melanoma were 2.59 µM, 0.773 µM and 1.63 µM, respectively. The TGI with A498 renal is 3.11 µM; in the experiment with HCC-2998 colon it was 3.37 µM; in the experiment with HCT-15 colon, 2.79 µM; in the experiment with IGROV1 ovarian it was 5.88 µM; in the experiment on MDA-MB-231 breast it was greater than 100 µM; with SF-268 CNS, 3.83 µM. Further, the TGI is 7.9 µM with TK-10 renal, 2.12 µM in the experiment on U251 CNS and 5.11 µM in the experiment with UACC-257 melanoma.
In the case of `C[C@]12CC/C(=N\O)C[C@@H]1CC[C@@H]1[C@@H]2CC[C@]2(C)/C(=N/O)CC[C@@H]12`, the GI50 is 47.2 µM in the experiment on A498 renal; 43.3 µM in the experiment on HCT-15 colon; 17.4 µM in the experiment with IGROV1 ovarian; 26 µM in the experiment with MDA-MB-231 breast; 79.5 µM with SNB-19 CNS; 32.1 µM in the experiment on TK-10 renal. Besides, the figures for the GI50 in the experiment on U251 CNS and with UACC-257 melanoma were 35.2 µM and 37.6 µM, respectively. In addition, the TGI was greater than 100 µM in the experiment on A498 renal; greater than 100 µM with HCT-15 colon; 62.6 µM with IGROV1 ovarian; 73.8 µM in the experiment with MDA-MB-231 breast; greater than 100 µM in the experiment on SNB-19 CNS; greater than 100 µM with TK-10 renal. The TGI in the experiment on U251 CNS and with UACC-257 melanoma was greater than 100 µM each time.
